Columns and labels:
[1] = test system: Cabbage Looper (Trichoplusia ni); test: Bioassays on CL, 128-well diet tray assay; assay type: in vivo; settings: Trichoplusia ni, 168 h; 50 μg/cm^2 on artificial diet, second instar larvae, five to seven days; read-out: CL % Control (or Mortality) rating
Method: Bioassays on CL were conducted using a 128-well diet tray assay.
One to five second instar CL larvae were placed in each well (3 mL) of the diet tray that had been previously filled with 1 mL of artificial diet to which 50 μg/cm^2 of the test molecule (dissolved in 50 μL of 90:10 acetone-water mixture) had been applied (to each of eight wells) and then allowed to dry. Trays were covered with a clear self-adhesive cover and held at 25° C., 14:10 light-dark for five to seven days. Percent mortality was recorded for the larvae in each well; activity in the eight wells was then averaged. The results are indicated in the table entitled “Table ABC: Biological Results” (See Table Section).
(§1) Bioassays on BAW and CL were conducted according to the procedures outlined in Example A: Bioassays on Beet Armyworm (“BAW”) and Cabbage Looper (“CL”) using the indicated concentrations.

[2] = test system: Beet Armyworm (Spodoptera exigua); test: Bioassays on BAW, 128-well diet tray assay; assay type: in vivo; settings: Spodoptera exigua, 168 h; 50 μg/cm^2 on artificial diet, second instar larvae, five to seven days; read-out: BAW % Control (or Mortality) rating
Method: Bioassays on BAW were conducted using a 128-well diet tray assay. One to five second instar BAW larvae were placed in each well (3 mL) of the diet tray that had been previously filled with 1 mL of artificial diet to which 50 μg/cm^2 of the test molecule (dissolved in 50 μL of 90:10 acetone-water mixture) had been applied (to each of eight wells) and then allowed to dry. Trays were covered with a clear self-adhesive cover and held at 25° C., 14:10 light-dark for five to seven days. Percent mortality was recorded for the larvae in each well; activity in the eight wells was then averaged. The results are indicated in the table entitled “Table ABC: Biological Results” (See Table Section).
as §1

Structure (SMILES) | mortality at 50 µg/cm2 [1] | mortality at 50 µg/cm2 [2]
C[C@H](CS(=O)(=O)CC(F)(F)F)NC(=O)c1ccc(/C=C/C(c2cc(Cl)c3c(c2)OCO3)C(F)(F)F)cc1C(F)(F)F (stereo partly drawn) [F76, 4-((E)-3-(7-Chlorobenzo[d][1,3]dioxol-5-yl)-4,4,4-trifluorobut-1-en-1-yl)-N—((R)-1-((2,2,2-trifluoroethyl)sulfonyl)propan-2-yl)-2-(trifluoromethyl)benzamide] | 50 to 100% | 50 to 100%
CCCS(=O)(=O)C[C@@H](C)NC(=O)c1ccc(/C=C/C(c2cc(Cl)c(Cl)c(Cl)c2)C(F)(F)F)cc1C(F)(F)F (stereo partly drawn) [F79, N—((R)-1-(Propylsulfonyl)propan-2-yl)-4-((E)-4,4,4-trifluoro-3-(3,4,5-trichlorophenyl)but-1-en-1-yl)-2-(trifluoromethyl)benzamide] | 50 to 100% | 50 to 100%
CC(C)S(=O)(=O)C[C@@H](C)NC(=O)c1ccc(/C=C/C(c2cc(Cl)c(Cl)c(Cl)c2)C(F)(F)F)cc1C(F)(F)F (stereo partly drawn) [F80, N—((R)-1-(Isopropylsulfonyl)propan-2-yl)-4-((E)-4,4,4-trifluoro-3-(3,4,5-trichlorophenyl)but-1-en-1-yl)-2-(trifluoromethyl)benzamide] | 50 to 100% | 50 to 100%
CC(C)CS(=O)(=O)C[C@@H](C)NC(=O)c1ccc(/C=C/C(c2cc(Cl)c(Cl)c(Cl)c2)C(F)(F)F)cc1C(F)(F)F (stereo partly drawn) [F81, N—((R)-1-(Isobutylsulfonyl)propan-2-yl)-4-((E)-4,4,4-trifluoro-3-(3,4,5-trichlorophenyl)but-1-en-1-yl)-2-(trifluoromethyl)benzamide] | 50 to 100% | 50 to 100%
CC(C)[S+]([O-])C[C@@H](C)NC(=O)c1ccc(/C=C/C(c2cc(Cl)c(Cl)c(Cl)c2)C(F)(F)F)cc1C(F)(F)F (stereo partly drawn) [F82, N-((2R)-1-(Isopropylsulfinyl)propan-2-yl)-4-((E)-4,4,4-trifluoro-3-(3,4,5-trichlorophenyl)but-1-en-1-yl)-2-(trifluoromethyl)benzamide] | 50 to 100% | 50 to 100%
O=C(NCC1(SCC(F)(F)F)COC1)c1ccc(/C=C/C(c2cc(Cl)c(Cl)c(Cl)c2)C(F)(F)F)cc1C(F)(F)F (stereo not drawn) [F83, (E)-4-(4,4,4-Trifluoro-3-(3,4,5-trichlorophenyl)but-1-en-1-yl)-N-((3-((2,2,2-trifluoroethyl)thio)oxetan-3-yl)methyl)-2-(trifluoromethyl)benzamide] | 50 to 100% | 50 to 100%
C[C@H](CS(=O)(=O)CC(F)(F)F)NC(=O)c1ccc(/C=C/C(c2cc(Cl)c(Cl)c(Cl)c2)C(C)(F)F)cc1C(F)(F)F (stereo partly drawn) [F84, 4-((E)-4,4-Difluoro-3-(3,4,5-trichlorophenyl)pent-1-en-1-yl)-N—((R)-1-((2,2,2-trifluoroethyl)sulfonyl)propan-2-yl)-2-(trifluoromethyl)benzamide] | 50 to 100% | 50 to 100%
O=C(NCC1([S+]([O-])CC(F)(F)F)COC1)c1ccc(/C=C/C(c2cc(Cl)c(Cl)c(Cl)c2)C(F)(F)F)cc1C(F)(F)F (stereo not drawn) [F107, (E)-4-(4,4,4-Trifluoro-3-(3,4,5-trichlorophenyl)but-1-en-1-yl)-N-((3-((2,2,2-trifluoroethyl)sulfinyl)oxetan-3-yl)methyl)-2-(trifluoromethyl)benzamide] | 50 to 100% | 50 to 100%
C[C@H](CSCC(F)(F)F)NC(=O)c1ccc(/C=C/C(c2cc(Cl)c(Cl)c(Cl)c2)C(C)(F)F)cc1C(F)(F)F (stereo partly drawn) [F108, 4-((E)-4,4-Difluoro-3-(3,4,5-trichlorophenyl)pent-1-en-1-yl)-N—((R)-1-((2,2,2-trifluoroethyl)thio)propan-2-yl)-2-(trifluoromethyl)benzamide] | 50 to 100% | 50 to 100%
C[C@H](CS(=O)(=O)CC(F)(F)F)NC(=O)c1ccc(/C=C/C(c2cc(Cl)c(Cl)c(Br)c2)C(F)(F)F)cc1C(F)(F)F (stereo partly drawn) [F114, 4-((E)-3-(3-Bromo-4,5-dichlorophenyl)-4,4,4-trifluorobut-1-en-1-yl)-N—((R)-1-((2,2,2-trifluoroethyl)sulfonyl)propan-2-yl)-2-(trifluoromethyl)benzamide] | 50 to 100% | 50 to 100%
C=Cc1cc(C(/C=C/c2ccc(C(=O)N[C@H](C)CS(=O)(=O)CC(F)(F)F)c(C(F)(F)F)c2)C(F)(F)F)cc(Cl)c1Cl (stereo partly drawn) [F115, 4-((E)-3-(3,4-Dichloro-5-vinylphenyl)-4,4,4-trifluorobut-1-en-1-yl)-N—((R)-1-((2,2,2-trifluoroethyl)sulfonyl)propan-2-yl)-2-(trifluoromethyl)benzamide] | 50 to 100% | 50 to 100%
C[C@H](CSCC(F)(F)F)NC(=O)c1ccc(/C=C/C(c2cc(Cl)c(Cl)c(Br)c2)C(F)(F)F)cc1C(F)(F)F (stereo partly drawn) [F116, 4-((E)-3-(3-Bromo-4,5-dichlorophenyl)-4,4,4-trifluorobut-1-en-1-yl)-N—((R)-1-((2,2,2-trifluoroethyl)thio)propan-2-yl)-2-(trifluoromethyl)benzamide] | 50 to 100% | 50 to 100%
C[C@H](C[S+]([O-])CC(F)(F)F)NC(=O)c1ccc(/C=C/C(c2ccc(Cl)c(Cl)c2)C(F)(F)F)cc1Br (stereo partly drawn) [F117, 2-Bromo-4-((E)-3-(3,4-dichlorophenyl)-4,4,4-trifluorobut-1-en-1-yl)-N-((2R)-1-((2,2,2-trifluoroethyl)sulfinyl)propan-2-yl)benzamide] | 50 to 100% | 50 to 100%
C[C@H](CS(=O)(=O)CC(F)(F)F)NC(=O)c1ccc(/C=C/C(c2cc(Br)cc(OCC(F)(F)F)c2)C(C)(F)F)cc1C(F)(F)F (stereo partly drawn) [F120, 4-((E)-3-(3-Bromo-5-(2,2,2-trifluoroethoxy)phenyl)-4,4-difluoropent-1-en-1-yl)-N—((R)-1-((2,2,2-trifluoroethyl)sulfonyl)propan-2-yl)-2-(trifluoromethyl)benzamide] | 50 to 100% | 50 to 100%
C[C@H](C[S+]([O-])CCF)NC(=O)c1ccc(/C=C/C(c2cc(Cl)c(Cl)c(Cl)c2)C(C)(F)F)cc1C(F)(F)F (stereo partly drawn) [F121, 4-((E)-4,4-Difluoro-3-(3,4,5-trichlorophenyl)pent-1-en-1-yl)-N-((2R)-1-((2-fluoroethyl)sulfinyl)propan-2-yl)-2-(trifluoromethyl)benzamide] | 50 to 100% | 50 to 100%
C[C@H](CS(=O)(=O)CCF)NC(=O)c1ccc(/C=C/C(c2cc(Cl)c(Cl)c(Cl)c2)C(C)(F)F)cc1C(F)(F)F (stereo partly drawn) [F122, 4-((E)-4,4-Difluoro-3-(3,4,5-trichlorophenyl)pent-1-en-1-yl)-N—((R)-1-((2-fluoroethyl)sulfonyl)propan-2-yl)-2-(trifluoromethyl)benzamide] | 50 to 100% | 50 to 100%
C[C@H](CS(=O)(=O)CC(F)(F)F)NC(=O)c1ccc(/C=C/C(c2ccc(C(F)(F)F)c(F)c2)C(C)(F)F)cc1C(F)(F)F (stereo partly drawn) [F123, 4-((E)-4,4-Difluoro-3-(3-fluoro-4-(trifluoromethyl)phenyl)pent-1-en-1-yl)-N—((R)-1-((2,2,2-trifluoroethyl)sulfonyl)propan-2-yl)-2-(trifluoromethyl)benzamide] | 50 to 100% | 50 to 100%
C[C@H](CS(=O)(=O)CC(F)(F)F)NC(=O)c1ccc(/C=C/C(c2ccc(Cl)c(Cl)c2)C(F)(F)F)cc1Br (stereo partly drawn) [F124, 2-Bromo-4-((E)-3-(3,4-dichlorophenyl)-4,4,4-trifluorobut-1-en-1-yl)-N—((R)-1-((2,2,2-trifluoroethyl)sulfonyl)propan-2-yl)benzamide] | 50 to 100% | 50 to 100%
CC(F)(F)C(/C=C/c1ccc(C(=O)NCC[S+]([O-])CCF)c(C(F)(F)F)c1)c1cc(Cl)c(Cl)c(Cl)c1 (stereo not drawn) [F129, (E)-4-(4,4-Difluoro-3-(3,4,5-trichlorophenyl)pent-1-en-1-yl)-N-(2-((2-fluoroethyl)sulfinyl)ethyl)-2-(trifluoromethyl)benzamide] | 50 to 100% | 50 to 100%
C[C@H](CS(=O)(=O)CC(F)(F)F)NC(=O)c1ccc(/C=C/C(c2cc(Cl)c(Cl)c(Cl)c2)C(C)(F)F)cc1Br (stereo partly drawn) [F130, 2-bromo-4-((E)-4,4-difluoro-3-(3,4,5-trichlorophenyl)pent-1-en-1-yl)-N—((R)-1-((2,2,2-trifluoroethyl)sulfonyl)propan-2-yl)benzamide] | 50 to 100% | 50 to 100%
C[C@H](CS(=O)(=O)CC(F)(F)F)NC(=O)c1ccc(/C=C/C(c2cc(Cl)cc(Cl)c2)C(C)(F)F)cc1Br (stereo partly drawn) [F133, 2-Bromo-4-((E)-3-(3,5-dichlorophenyl)-4,4-difluoropent-1-en-1-yl)-N—((R)-1-((2,2,2-trifluoroethyl)sulfonyl)propan-2-yl)benzamide] | 50 to 100% | 50 to 100%

— patent publication US20170210723A1, “MOLECULES HAVING PESTICIDAL UTILITY, AND INTERMEDIATES, COMPOSITIONS, AND PROCESSES, RELATED THERETO” (priority 2016, published 2017)
